Source: US8952128B2, “Somatostatin-dopamine chimeric analogs” (priority 2012, dated 2015)
Numbered stars: 1 amine (or outer) side, 2 acyl side, 3 side chain; on linkers, the order of the positions; unused ones are H or OH. Bridge positions count the residues as written; N and C are the ends. Square brackets hold non-standard residues; d marks the D form. Peptide text beside a SMILES is read from it. X1 = CN1C[C@H](CSCCN(CCSC[C@@H]2C[C@@H]3c4cccc5[nH]cc(c45)C[C@H]3N(C)C2)[C@H](CCCCN[*:2])C(=O)[*:1])C[C@@H]2c3cccc4[nH]cc(c34)C[C@H]21

Legend:
hDRD2 = hDRD2 (Homo sapiens (Human), UniProt P14416); type: binding; conditions: CHO-K1 membranes, [3H]-spiperone; read-out: hDRD2 Ki (nM) ± SEM
hSSTR2 = hSSTR2 (Homo sapiens (Human), UniProt P30874); assay: Intracellular calcium mobilization assay (FLIPR Calcium 4), hSSTR2; type: cell-based; conditions: read-out: hSSTR2 % Emax ± SEM;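 further: agonist activity read as intracellular calcium rise in cells expressing human SSTR2, loaded with a calcium-sensitive dye for 60 min at 37 °C, measured by FLIPR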
hSSTR2, sequence (P30874 whole entry): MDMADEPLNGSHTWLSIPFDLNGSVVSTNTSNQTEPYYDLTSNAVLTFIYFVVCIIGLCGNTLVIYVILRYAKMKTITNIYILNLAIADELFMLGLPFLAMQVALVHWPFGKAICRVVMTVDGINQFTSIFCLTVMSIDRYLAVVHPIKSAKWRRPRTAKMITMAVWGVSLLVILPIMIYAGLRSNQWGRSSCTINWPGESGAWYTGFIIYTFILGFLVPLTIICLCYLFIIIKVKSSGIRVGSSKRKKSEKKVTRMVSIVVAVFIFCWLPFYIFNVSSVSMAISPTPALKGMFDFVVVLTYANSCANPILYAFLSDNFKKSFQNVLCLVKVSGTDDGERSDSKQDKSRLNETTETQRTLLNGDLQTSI
Description: The ability of select compounds according to the present invention to activate hSSTR2 and hDRD2 was determined by the intracellular calcium mobilization assay using FLIPR Calcium 4 assay kit (Molecular Devices).
Cells expressing hSSTR2 or hDRD2 were plated in 384-well microplates in tissue culture media and incubated for 16-24 hours at 37° C. in a humidified atmosphere with 5% CO2. Medium was replaced by loading buffer containing Hank's buffered saline, 20 mM HEPES, 2.5 mM probenecid and Calcium 4 dye, and the plates were incubated at 37° C. for 60 minutes.

C[C@@H](O)[C@@H]1NC(=O)[C@H](CCCCN)NC(=O)[C@@H](Cc2c[nH]c3ccccc23)NC(=O)[C@H](Cc2ccccc2)NC(=O)[C@H](Cc2ccccc2)NC(=O)[C@H](CCCNC(=N)N)NC(=O)[C@H](N(CCSC[C@@H]2C[C@@H]3c4cccc5[nH]cc(c45)C[C@H]3N(C)C2)CCSC[C@@H]2C[C@@H]3c4cccc5[nH]cc(c45)C[C@H]3N(C)C2)CCCCNC(=O)[C@H](Cc2ccccc2)NC1=O [Compound 40, bis[Dop1-psi(CH2N)]-cyclo(DLys-Arg-Phe-Phe-DTrp-Lys-Thr-Phe)] (RFF[dW]KTF; linker N-C via X1)
Ki (hDRD2): 445 ± 143 nM | Emax (hSSTR2): 95 ± 6.1%
